Laboratory results reported in patent US10428080B2, “TBK/IKK inhibitor compounds and uses thereof” (Merck Patent GmbH, priority 2015, dated 2019).
Where a name gives a salt, the structure may show the parent alone. Read-outs that look alike come from different tables or passages of the source.

How the values were obtained:
TBK1 = target: T1, TBK1 (Homo sapiens, UniProt Q9UHD2); experiment: TBK Biochemical Assay; conditions: read-out: TBK1 IC50
T1 sequence (Q9UHD2 1-729): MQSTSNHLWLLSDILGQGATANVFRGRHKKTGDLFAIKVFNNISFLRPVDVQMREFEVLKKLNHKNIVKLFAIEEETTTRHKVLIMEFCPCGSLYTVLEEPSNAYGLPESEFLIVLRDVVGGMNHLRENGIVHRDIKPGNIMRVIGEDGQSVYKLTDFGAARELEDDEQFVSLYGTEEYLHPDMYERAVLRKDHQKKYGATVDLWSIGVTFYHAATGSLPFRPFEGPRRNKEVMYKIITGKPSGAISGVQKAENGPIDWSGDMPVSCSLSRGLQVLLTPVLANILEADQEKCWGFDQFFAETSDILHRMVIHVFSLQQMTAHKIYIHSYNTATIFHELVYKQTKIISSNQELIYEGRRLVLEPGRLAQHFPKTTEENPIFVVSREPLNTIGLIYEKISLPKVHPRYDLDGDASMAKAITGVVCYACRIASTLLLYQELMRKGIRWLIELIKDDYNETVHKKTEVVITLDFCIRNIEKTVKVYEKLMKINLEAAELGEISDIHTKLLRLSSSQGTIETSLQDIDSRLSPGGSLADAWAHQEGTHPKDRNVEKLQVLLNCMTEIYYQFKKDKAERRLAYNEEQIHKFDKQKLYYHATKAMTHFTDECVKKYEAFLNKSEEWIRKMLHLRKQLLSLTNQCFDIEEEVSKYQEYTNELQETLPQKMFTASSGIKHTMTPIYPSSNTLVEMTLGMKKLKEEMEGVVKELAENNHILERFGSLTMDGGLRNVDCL
Outline: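 Caliper LabChip mobility-shift readout of substrate and product after 90 min of TBK1 reaction at 25° C and stop-buffer addition. Compounds tested in 1:4 serial dilution over 10 points from 30 uM final at 1% DMSO; staurosporine 10 uM final defines full inhibition.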

IKKε = target: T2, IKKε (Homo sapiens, UniProt Q14164); experiment: IKKe Biochemical Assay; conditions: read-out: IKKε IC50
T2 sequence (Q14164 1-716): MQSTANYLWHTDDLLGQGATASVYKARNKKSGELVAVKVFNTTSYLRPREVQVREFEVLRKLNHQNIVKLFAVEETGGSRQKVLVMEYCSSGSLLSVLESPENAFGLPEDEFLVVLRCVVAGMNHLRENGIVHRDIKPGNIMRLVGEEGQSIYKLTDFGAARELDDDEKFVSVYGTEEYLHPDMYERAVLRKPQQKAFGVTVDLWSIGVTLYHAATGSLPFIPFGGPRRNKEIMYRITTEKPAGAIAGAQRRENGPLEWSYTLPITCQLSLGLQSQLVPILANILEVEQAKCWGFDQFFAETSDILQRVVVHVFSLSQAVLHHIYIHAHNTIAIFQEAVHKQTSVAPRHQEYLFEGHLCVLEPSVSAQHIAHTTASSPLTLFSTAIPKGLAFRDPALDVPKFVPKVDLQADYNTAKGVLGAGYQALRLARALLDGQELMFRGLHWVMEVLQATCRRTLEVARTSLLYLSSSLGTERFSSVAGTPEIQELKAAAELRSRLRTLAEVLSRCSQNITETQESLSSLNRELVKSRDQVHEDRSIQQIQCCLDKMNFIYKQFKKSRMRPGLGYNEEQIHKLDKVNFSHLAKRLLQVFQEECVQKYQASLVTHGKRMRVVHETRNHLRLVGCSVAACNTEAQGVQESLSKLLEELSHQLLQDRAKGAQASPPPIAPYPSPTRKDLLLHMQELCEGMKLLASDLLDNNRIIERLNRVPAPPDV
Outline: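 Activity was measured as mobility-shift separation of phosphorylated from unphosphorylated substrate on a LabChip EZ Reader. Compound was titrated from 30 uM final in 10 points, 1:4 steps, with 1% DMSO, and enzyme plus substrate reacted 90 min at 25° C before stop buffer. Control wells held 10 uM staurosporine.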

[1] = system: phosphorylation of the IRF-3 protein in MDA-MB-468 cells; experiment: pIRF3 immunocytochemistry cell based assay; conditions: MDA-MB-468 cells, Poly(I:C) stimulation, read-out: pIRF3 IC50
Protocol: The purpose of the pIRF3 immunocytochemistry cell based assay was to identify small molecules which modulates TBK/IKKe kinase activity through on target substrate phosphorylation of the IRF-3 protein. On the first day of the experiment, MDA-MB-468 cells were plated in 384 well, black, clear-bottom, Poly D lysine coated plates at a density of 5000 cells/well in 45 ul of complete DMEM and allowed to adhere overnight. On the second day compounds were added to cells at a starting concentration of 10 uM with a serial dilution of 3-fold for a total of 10 points. The cells were incubated for 1 hr at 37° C. Cells were then stimulated with Poly(I:C) at a final concentration of 10 ug/ml, and were incubated for 2 hr at 37° C. Following the incubation, media was removed from the wells and the cells were fixed with 4% PFA for 15 min at RT. Cells were washed at least 3 times with PBS, and then permeabilized with ice-cold methanol for 10 min at RT. The washing step was repeated and the cells were then blocked using 10% goat serum/1% BSA, made up in PBS and allowed to incubate at RT for 1 hr. The cells were washed again and then treated with an anti-pIRF3 antibody at 4° C. overnight (1:250 dilution of Abcam ab76493 in PBS containing 1% BSA). On the third day the primary antibody was washed off and pIRF3 was detected by adding the secondary antibody conjugated to AlexaFluor488 (1:200 dilution of secondary antibody in PBS containing 1% BSA) for 1 hr at RT. Cells were washed and then counterstained with PI/RNase staining buffer for 15 min at RT and read on the Acumen Explorer laser scanning cytometer. The percentage of phosphorylation of the IRF-3 protein was calculated using the following algorithm, a modified version of the mean half width intensity (pIRF3 staining)/(PI staining or # of cells)×100%). IC50 curves were generated using the Genedata software.

Row | SMILES | IC50 (TBK1) [nM] | IC50 (IKKε) [nM] | IC50 ([1]; Homo sapiens) [nM] | IC50 [1] [nM]
1 | COc1cc(C(=O)N(C)C)ccc1-c1cc2nccc(-c3ccc(OC4CCOC[C@@H]4F)c(C#N)c3)c2o1 (mixture of isomers) [Compound 42, 4-{7-[3-Cyano-4-((S)-3-fluoro-tetrahydro-pyran-4-yloxy)-phenyl]-furo[3,2-b]pyridin-2-yl}-3-methoxy-N,N-dimethyl-benzamide] | < 100 | < 100 | < 100 | –
2 | N#Cc1cc(-c2ccnc3cc(-c4ccc(C(=O)NC5CNCCC5F)cc4)oc23)ccc1OC1CCOCC1 (racemic) [Compound 131, 4-{7-[3-Cyano-4-(tetrahydro-pyran-4-yloxy)-phenyl]-furo[3,2-b]pyridin-2-yl}-N-(4-fluoro-piperidin-3-yl)-benzamide] | < 100 | < 100 | 100 to 1000 | –
3 | COc1cc(C(=O)N(C)C)ccc1-c1cc2nccc(-c3ccc(C(C)(C)N4CCOCC4)c(C#N)c3)c2o1 [Compound 291, 4-(7-[3-cyano-4-[2-(morpholin-4-yl)propan-2-yl]phenyl]furo[3,2-b]pyridin-2-yl)-3-methoxy-N,N-dimethylbenzamide hydrochloride] | – | – | > 5000 | –
4 | COc1cc(C(=O)N(C)C)cnc1-c1cc2ncc(OC)c(-c3ccc(OC4CCOCC4)c(C#N)c3)c2o1 [Compound 339, 6-[7-[3-cyano-4-(oxan-4-yloxy)phenyl]-6-methoxyfuro[3,2-b]pyridin-2-yl]-5-methoxy-N,N-dimethylpyridine-3-carboxamide] | 100 to 1000 | – | < 100 | –
5 | COc1cc(C(=O)N(C)CCO)cnc1-c1cc2ncc(C3CC3)c(-c3ccc(OC4CCOCC4)c(C#N)n3)c2o1 [Compound 363, 6-[7-[6-cyano-5-(oxan-4-yloxy)pyridin-2-yl]-6-cyclopropylfuro[3,2-b]pyridin-2-yl]-N-(2-hydroxyethyl)-5-methoxy-N-methylpyridine-3-carboxamide hydrochloride] | > 5000 | > 5000 | – | –
6 | COc1cc(C(=O)N(C)CCO)ncc1-c1cc2nccc(-c3cc(C#N)c(OC4CCOCC4)cn3)c2o1 [Compound 377, 5-[7-[4-cyano-5-(oxan-4-yloxy)pyridin-2-pyridin-2-yl]furo[3,2-b]pyridin-2-yl]-N-(2-hydroxyethyl)-4-methoxy-N-methylpyridine-2-carboxamide] | 100 to 1000 | 100 to 1000 | – | –
7 | COc1cc(C(=O)N2CCCCC2)ncc1-c1cc2nccc(-c3cc(C#N)c(OC4CCOCC4)cn3)c2o1 [Compound 383, 2-(2-[4-methoxy-6-[(piperidin-1-yl)carbonyl]pyridin-3-yl]furo[3,2-b]pyridin-7-yl)-5-(oxan-4-yloxy)pyridine-4-carbonitrile] | 100 to 1000 | 100 to 1000 | – | –
8 | COc1cc(C(=O)N(C)C)ncc1-c1cc2nccc(-c3cc(C#N)c(OC4CCOCC4)cn3)c2o1 [Compound 386, 5-[7-[4-cyano-5-(oxan-4-yloxy)pyridin-2-yl]furo[3,2-b]pyridin-2-yl]-4-methoxy-N,N-dimethylpyridine-2-carboxamide] | 100 to 1000 | 100 to 1000 | – | –
9 | COc1cc(C(=O)N(C)C)cnc1-c1cc2nccc(-c3ncc(OC4CCOCC4)c(C#N)n3)c2o1 [Compound 396, 6-[7-[4-cyano-5-(oxan-4-yloxy)pyrimidin-2-yl]furo[3,2-b]pyridin-2-yl]-5-methoxy-N,N-dimethylpyridine-3-carboxamide] | 100 to 1000 | 100 to 1000 | – | –
10 | COc1cc(C(=O)N(C)C)ccc1-c1cc2nccc(Nc3ccc(OC4CCOCC4)c(C#N)c3)c2o1 [Compound 399, 4-(7-[[3-cyano-4-(oxan-4-yloxy)phenyl]amino]furo[3,2-b]pyridin-2-yl)-3-methoxy-N,N-dimethylbenzamide] | > 5000 | > 5000 | – | –
11 | COc1cc(C(=O)NC2CC3CCC2CC3)ccc1-c1cc2nccc(-c3ccc(OC4CCOCC4)c(C#N)c3)c2o1 (stereo not drawn) [Compound 495] | 100 to 1000 | < 100 | – | –
12 | COc1cc(C(=O)NC2CC3CCC2C3)ccc1-c1cc2nccc(-c3ccc(OC4CCOCC4)c(C#N)c3)c2o1 (stereo not drawn) [Compound 496] | < 100 | < 100 | – | –

Next, values leading:

Row | IC50 (TBK1) [nM] | IC50 (IKKε) [nM] | IC50 ([1]; Homo sapiens) [nM] | IC50 [1] [nM] | SMILES
13 | < 100 | < 100 | 100 to 1000 | – | COc1cc(C(=O)N[C@H]2[C@@H]3C[C@H]2CN(C)C3)ccc1-c1cc2nccc(-c3ccc(OC4CCOCC4)c(C#N)c3)c2o1 (single isomer, unassigned) [Compound 365]
14 | < 100 | < 100 | – | 100 to 1000 | COc1cc(C(=O)N[C@H]2[C@@H]3C[C@H]2CN(C)C3)ccc1-c1cc2nccc(-c3ccc(OC4CCOCC4)c(C#N)c3)c2o1 (single isomer, unassigned) [Compound 366]
15 | 100 to 1000 | 100 to 1000 | – | – | COc1cc(-c2cc3nccc(-c4ccc(NC5CCOCC5)c(C#N)c4)c3o2)ncc1C(=O)N(C)C [Compound 392, 6-(7-[3-cyano-4-[(oxan-4-yl)amino]phenyl]furo[3,2-b]pyridin-2-yl)-4-methoxy-N,N-dimethylpyridine-3-carboxamide]
16 | < 100 | < 100 | – | – | COc1cc(C(=O)N2CC3COCC3C2)ncc1-c1cc2nccc(-c3ccc(NC4CCOCC4)c(C#N)c3)c2o1 (stereo not drawn) [Compound 421, 5-[2-[6-([hexahydro-1H-furo[3,4-c]pyrrol-5-yl]carbonyl)-4-methoxypyridin-3-yl]furo[3,2-b]pyridin-7-yl]-2-[(oxan-4-yl)amino]benzonitrile]
17 | < 100 | < 100 | – | – | COc1cc(C(=O)N2CC3CN(C)CC3C2)ncc1-c1cc2nccc(-c3ccc(N4CC[C@@H](F)C4)c(C#N)c3)c2o1 (stereo partly drawn) [Compound 453, 2-[(3R)-3-fluoropyrrolidin-1-yl]-5-[2-[4-methoxy-6-([5-methyl-octahydropyrrolo[3,4-c]pyrrol-2-yl]carbonyl)pyridin-3-yl]furo[3,2-b]pyridin-7-yl]benzonitrile]
18 | < 100 | < 100 | – | – | COc1cc(C(=O)NC2C3COCC32)ncc1-c1cc2nccc(-c3ccc(N4CC[C@@H](F)C4)c(C#N)c3)c2o1 (stereo partly drawn) [Compound 469, 5-(7-[3-cyano-4-[(3R)-3-fluoropyrrolidin-1-yl]phenyl]furo[3,2-b]pyridin-2-yl)-4-methoxy-N-[3-oxabicyclo[3.1.0]hexan-6-yl]pyridine-2-carboxamide]
